From ChEMBL document CHEMBL5120803, “Design, synthesis and activity study of a novel PI3K degradation by hijacking VHL E3 ubiquitin ligase” (2022)
Calls of active or inactive are those of the source. No cut-off for these calls is given here.

Key:
HeLa = assay: Antiproliferative activity against human HeLa cells assessed as inhibition of cell proliferation at 10 uM incubated for 72 hrs by CCK8 assay relative to control; format: functional; set-up: scale not given: the % may be the effect or the level left
[1] = biological target: Phosphatidylinositol 4,5-bisphosphate 3-kinase catalytic subunit alpha isoform (Homo sapiens) (UniProt P42336); assay: Inhibition on PI3Kalpha (unknown origin) at 1 nM by kinase-glo plus luminescent assay relative to control
HCT-116 = assay: Antiproliferative activity against human HCT-116 cells assessed as inhibition of cell proliferation at 10 uM incubated for 72 hrs by CCK8 assay relative to control; format: functional; set-up: scale not given: the % may be the effect or the level left
HT-29 = assay: Antiproliferative activity against human HT-29 cells assessed as inhibition of cell proliferation at 10 uM incubated for 72 hrs by CCK8 assay relative to control; format: functional; set-up: scale not given: the % may be the effect or the level left
[2] = biological target: T1, von Hippel-Lindau disease tumor suppressor/Phosphatidylinositol 4,5-bisphosphate 3-kinase catalytic subunit alpha isoform (Homo sapiens) (UniProt P42336+P40337); assay: PROTAC activity at VHL/PI3K in human HeLa cells assessed as induction of PI3Kalpha degradation at 10 uM incubated for 24 hrs by Western blotting analysis; format: cell-based
[3] = biological target: T1, von Hippel-Lindau disease tumor suppressor/Phosphatidylinositol 4,5-bisphosphate 3-kinase catalytic subunit alpha isoform (Homo sapiens); assay: PROTAC activity at VHL/PI3K in human HeLa cells assessed as redcution in AKT phosphorylation at 3 uM incubated for 24 hrs by Western blotting analysis; format: cell-based
[4] = biological target: T1, von Hippel-Lindau disease tumor suppressor/Phosphatidylinositol 4,5-bisphosphate 3-kinase catalytic subunit alpha isoform (Homo sapiens); assay: PROTAC activity at VHL/PI3K in human HeLa cells assessed as induction of PI3Kalpha degradation by Western blotting analysis; format: cell-based; conditions: time 2-12 hrs, TDE = time-dependent effect
[5] = biological target: T1, von Hippel-Lindau disease tumor suppressor/Phosphatidylinositol 4,5-bisphosphate 3-kinase catalytic subunit alpha isoform (Homo sapiens); assay: PROTAC activity at VHL/PI3K in human HeLa cells assessed as reduction in AKT phosphorylation at 10 uM incubated for 24 hrs by Western blotting analysis; format: cell-based
[6] = biological target: T1, von Hippel-Lindau disease tumor suppressor/Phosphatidylinositol 4,5-bisphosphate 3-kinase catalytic subunit alpha isoform (Homo sapiens); assay: PROTAC activity at VHL/PI3K in human HeLa cells assessed as induction of PI3Kalpha degradation at 3 uM incubated for 24 hrs by Western blotting analysis; format: cell-based
[7] = biological target: T1, von Hippel-Lindau disease tumor suppressor/Phosphatidylinositol 4,5-bisphosphate 3-kinase catalytic subunit alpha isoform (Homo sapiens); assay: PROTAC activity at VHL/PI3K in human HeLa cells assessed as induction of PI3Kalpha degradation at 1 to 10 uM incubated for 24 hrs by Western blotting analysis; format: cell-based; conditions: dose 1-10 µM
[8] = biological target: T1, von Hippel-Lindau disease tumor suppressor/Phosphatidylinositol 4,5-bisphosphate 3-kinase catalytic subunit alpha isoform (Homo sapiens); assay: PROTAC activity at VHL/PI3K in human HeLa cells assessed as inhibition of AKT phosphorylation by Western blotting analysis; format: cell-based; conditions: time 2-12 hrs, TDE = time-dependent effect

T1 sequence (P40337 whole entry, looked up, canonical isoform): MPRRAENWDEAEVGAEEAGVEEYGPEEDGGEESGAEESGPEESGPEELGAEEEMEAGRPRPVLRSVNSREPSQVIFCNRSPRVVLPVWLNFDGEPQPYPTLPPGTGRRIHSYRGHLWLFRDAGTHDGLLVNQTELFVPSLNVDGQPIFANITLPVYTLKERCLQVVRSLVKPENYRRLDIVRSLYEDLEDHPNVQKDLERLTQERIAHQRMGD
T1 sequence (P42336 whole entry, looked up, canonical isoform): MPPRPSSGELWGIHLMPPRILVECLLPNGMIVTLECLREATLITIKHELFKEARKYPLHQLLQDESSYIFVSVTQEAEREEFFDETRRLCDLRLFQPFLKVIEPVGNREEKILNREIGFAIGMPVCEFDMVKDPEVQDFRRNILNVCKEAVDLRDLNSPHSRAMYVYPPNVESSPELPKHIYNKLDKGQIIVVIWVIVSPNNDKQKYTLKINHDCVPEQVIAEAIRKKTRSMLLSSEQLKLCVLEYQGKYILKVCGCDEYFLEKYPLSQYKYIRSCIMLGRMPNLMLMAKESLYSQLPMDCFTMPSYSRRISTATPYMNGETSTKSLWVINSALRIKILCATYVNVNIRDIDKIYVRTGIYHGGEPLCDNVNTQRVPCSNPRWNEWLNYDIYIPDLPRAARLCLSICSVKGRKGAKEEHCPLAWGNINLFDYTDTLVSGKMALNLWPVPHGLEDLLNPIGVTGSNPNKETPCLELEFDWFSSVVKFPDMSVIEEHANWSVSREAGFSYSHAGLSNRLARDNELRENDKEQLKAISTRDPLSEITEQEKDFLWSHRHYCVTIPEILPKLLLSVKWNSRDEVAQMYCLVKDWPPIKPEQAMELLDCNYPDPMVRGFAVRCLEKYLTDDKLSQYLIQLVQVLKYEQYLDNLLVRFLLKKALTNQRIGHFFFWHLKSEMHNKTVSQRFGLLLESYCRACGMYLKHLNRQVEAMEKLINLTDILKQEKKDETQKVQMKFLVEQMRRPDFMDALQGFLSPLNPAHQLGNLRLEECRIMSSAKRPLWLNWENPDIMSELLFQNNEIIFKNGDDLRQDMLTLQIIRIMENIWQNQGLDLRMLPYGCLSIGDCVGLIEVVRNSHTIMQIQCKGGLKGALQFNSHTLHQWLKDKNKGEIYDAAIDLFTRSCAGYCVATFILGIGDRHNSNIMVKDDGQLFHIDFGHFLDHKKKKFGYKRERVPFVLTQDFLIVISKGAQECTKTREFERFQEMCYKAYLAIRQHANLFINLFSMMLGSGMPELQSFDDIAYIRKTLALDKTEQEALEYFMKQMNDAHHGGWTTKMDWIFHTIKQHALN
Chain of Phosphatidylinositol 4,5-bisphosphate 3-kinase catalytic subunit alpha isoform (Homo sapiens) (P42336 whole entry, canonical isoform): as the sequence (P42336 whole entry, looked up, canonical isoform) above

SMILES: COc1ncc(-c2ccc3ncc(-c4nnc(-c5ccccc5C(=O)NCCOCCOCCOCCOCCOCCOCC(=O)N[C@H](C(=O)N5C[C@@H](O)C[C@@H]5C(=O)NCc5ccc(-c6scnc6C)cc5)C(C)(C)C)o4)n3c2)cc1NS(=O)(=O)c1ccc(F)cc1F
- Activity (HeLa): 91.27%
- inhibition [1]: 48.6%
- Activity (HCT-116): 56.24%

SMILES: COC(=O)c1ccccc1-c1nnc(-c2cnc3ccc(-c4cnc(OC)c(NS(=O)(=O)c5ccc(F)cc5F)c4)cn23)o1
- Activity (HeLa): 99.37%
- inhibition [1]: 70.2%
- Activity (HCT-116): 91.65%
- Activity (HT-29): 80.36%

SMILES: COc1ncc(-c2ccc3ncc(-c4nnc(-c5ccccc5C(=O)NCCCCCCC(=O)N[C@H](C(=O)N5C[C@@H](O)C[C@@H]5C(=O)NCc5ccc(-c6scnc6C)cc5)C(C)(C)C)o4)n3c2)cc1NS(=O)(=O)c1ccc(F)cc1F
- Activity (HeLa): 96.33%
- inhibition [1]: 49.8%
- Activity [2]: Active
- Activity [3]: Active
- Activity [4]: Tde
- Activity [5]: Active
- Activity [6]: Active
- Activity [7]: Active
- Activity (HCT-116): 50.3%
- Activity [8]: Tde
- Activity (HT-29): 72.18%

SMILES: COc1ncc(-c2ccc3ncc(-c4nnc(-c5ccccc5C(=O)NCCOCC(=O)N[C@H](C(=O)N5C[C@@H](O)C[C@@H]5C(=O)NCc5ccc(-c6scnc6C)cc5)C(C)(C)C)o4)n3c2)cc1NS(=O)(=O)c1ccc(F)cc1F
- Activity (HeLa): 23.41%
- inhibition [1]: 40.1%
- Activity (HCT-116): 25.32%
- Activity (HT-29): 51.09%

SMILES: COc1ncc(-c2ccc3ncc(-c4nnc(-c5ccccc5C(=O)O)o4)n3c2)cc1NS(=O)(=O)c1ccc(F)cc1F
- Activity (HeLa): 1.62%
- inhibition [1]: 67.1%
- Activity (HCT-116): 8.23%

SMILES: COc1ncc(-c2ccc3ncc(-c4nnc(-c5ccccc5C(=O)NCCCCC(=O)N[C@H](C(=O)N5C[C@@H](O)C[C@@H]5C(=O)NCc5ccc(-c6scnc6C)cc5)C(C)(C)C)o4)n3c2)cc1NS(=O)(=O)c1ccc(F)cc1F
- Activity (HeLa): 32.2%
- inhibition [1]: 22.2%
- Activity (HCT-116): 23.94%
- Activity (HT-29): 82.88%

SMILES: COc1ncc(-c2ccc3ncc(-c4nnc(-c5ccccc5C(=O)NCCCCCCCC(=O)N[C@H](C(=O)N5CC(O)CC5C(=O)NCc5ccc(-c6scnc6C)cc5)C(C)(C)C)o4)n3c2)cc1NS(=O)(=O)c1ccc(F)cc1F (single isomer, unassigned)
- Activity (HeLa): 87.89%
- inhibition [1]: 65.2%
- Activity (HCT-116): 70.03%
- Activity (HT-29): 74.22%

SMILES: COc1ncc(-c2ccc3ncc(-c4nnc(-c5ccccc5C(=O)NCCOCCOCCOCC(=O)N[C@H](C(=O)N5C[C@@H](O)C[C@@H]5C(=O)NCc5ccc(-c6scnc6C)cc5)C(C)(C)C)o4)n3c2)cc1NS(=O)(=O)c1ccc(F)cc1F
- Activity (HeLa): 90.1%
- inhibition [1]: 59.1%
- Activity (HCT-116): 48.88%
- Activity (HT-29): 22.69%

SMILES: COc1ncc(-c2ccc3ncc(-c4nnc(-c5ccccc5C(=O)NCCOCCOCCOCCOCC(=O)N[C@H](C(=O)N5CC(O)CC5C(=O)NCc5ccc(-c6scnc6C)cc5)C(C)(C)C)o4)n3c2)cc1NS(=O)(=O)c1ccc(F)cc1F (single isomer, unassigned)
- Activity (HeLa): 89.6%
- inhibition [1]: 57.5%
- Activity (HCT-116): 57.87%
- Activity (HT-29): 50.35%

SMILES: COc1ncc(-c2ccc3ncc(-c4nnc(-c5ccccc5C(=O)NCCOCCOCCOCCOCCOCC(=O)N[C@H](C(=O)N5C[C@@H](O)C[C@@H]5C(=O)NCc5ccc(-c6scnc6C)cc5)C(C)(C)C)o4)n3c2)cc1NS(=O)(=O)c1ccc(F)cc1F
- Activity (HeLa): 85.58%
- inhibition [1]: 51.9%
- Activity (HCT-116): 37.32%
- Activity (HT-29): 61.35%

SMILES: COc1ncc(-c2ccc3ncc(-c4nnc(-c5ccccc5C(=O)N[C@H](C(=O)N5C[C@@H](O)C[C@@H]5C(=O)NCc5ccc(-c6scnc6C)cc5)C(C)(C)C)o4)n3c2)cc1NS(=O)(=O)c1ccc(F)cc1F
- Activity (HeLa): 30.38%
- inhibition [1]: 33.6%
- Activity (HCT-116): 95.86%

SMILES: COc1ncc(-c2ccc3ncc(-c4nnc(-c5ccccc5C(=O)NCCOCCOCC(=O)N[C@H](C(=O)N5C[C@@H](O)C[C@@H]5C(=O)NCc5ccc(-c6scnc6C)cc5)C(C)(C)C)o4)n3c2)cc1NS(=O)(=O)c1ccc(F)cc1F
- Activity (HeLa): 89.21%
- inhibition [1]: 31.7%
- Activity (HCT-116): 33.84%
- Activity (HT-29): 57.14%

SMILES: COc1ncc(-c2ccc3ncc(-c4nnc(-c5ccccc5C(=O)NCCCCCC(=O)N[C@H](C(=O)N5C[C@@H](O)C[C@@H]5C(=O)NCc5ccc(-c6scnc6C)cc5)C(C)(C)C)o4)n3c2)cc1NS(=O)(=O)c1ccc(F)cc1F
- Activity (HeLa): 94.03%
- inhibition [1]: 60%
- Activity [2]: Active
- Activity [3]: Active
- Activity [5]: Active
- Activity [6]: Active
- Activity [7]: Active
- Activity (HCT-116): 41.16%
- Activity (HT-29): 89.26%
